Laboratory results as given in ChEMBL document CHEMBL4825698, “Identification of novel benzothiopyranones with ester and amide motifs derived from active metabolite as promising leads against Mycobacterium tuberculosis” (Eur J Med Chem, 2021).
≈ marks a conversion by molar mass, not a printed value.

Key:
[1] = Metabolic Stability in pooled human hepatocytes assessed as parent compound remaining after 30 mins; format: ADME, cell-based, Hepatocyte; conditions: read-out: Stabilty
[2] = Metabolic stability in pooled mouse hepatocytes assessed as parent compound remaining after 30 mins; format: ADME, cell-based, Hepatocyte; conditions: read-out: Stabilty
[3] = Solubility of the compound in water measured after 20 mins by HPLC analysis; format: physicochemical
[4] = test system: Mycobacterium tuberculosis; assay: Antimycobacterial activity against Mycobacterium tuberculosis H37Rv assessed as bacterial growth inhibition incubated for 7 days by MABA assay; format: functional; conditions: 168 h, time 7 day
[5] = test system: Vero; assay: Cytotoxicity against African green monkey Vero cells assessed as reduction in cell viability after 48 hrs by MTT assay; format: cell-based; conditions: Chlorocebus sabaeus
[6] = Metabolic stability in pooled mouse hepatocytes assessed as half life; format: ADME, cell-based, Hepatocyte
[7] = Metabolic stability in pooled human hepatocytes assessed as half life; format: ADME, cell-based, Hepatocyte
[8] = Toxicity in BALB/c mouse infected with Mycobacterium tuberculosis H37Rv assessed as body weight at 100 mg/kg, po via gavage administered for 3 weeks starting from day 10 post infection and administered 5 times a week (reference value: 24.59 +/- 0.61 g); format: organism-based; conditions: in vivo, 504 h
[9] = test system: Mycobacterium tuberculosis; assay: (§1) Antimycobacterial activity against Mycobacterium tuberculosis H37Rv infected in BALB/c mouse model of acute tuberculosis infection assessed as log change in bacterial burden in mouse lung at 100 mg/kg, po via gavage administered for 3 weeks starting from day 10 post infection and administered 5 times a week (reference value: 4.94 +/-0.06 1og10CFU); format: functional
[10] = Toxicity in BALB/c mouse infected with Mycobacterium tuberculosis H37Rv assessed as body weight at 25 mg/kg, po via gavage administered for 3 weeks starting from day 10 post infection and administered 5 times a week (reference value: 24.59 +/- 0.61 g); format: organism-based; conditions: in vivo, 504 h
[11] = test system: Mycobacterium tuberculosis; assay: as §1, with “25” for “100”, “4.94=+/-0.06” for “4.94 +/-0.06”; format: functional

Structure (SMILES)	remaining at 0.5 h [1] [%]	remaining at 0.5 h [2] [%]	MIC [4] [µg/mL]	IC50 [5] [µg/mL]	half-life [6] [min]	half-life [7] [min]	other results
O=c1cc(N2CCN(CC3CCCCC3)CC2)sc2c([N+](=O)[O-])cc(C(F)(F)F)cc12	82.4	80.6	< 0.016	–	–	–	solubility at 20 min [3]: < 0.1 µg/mL
O=C(OC1CCC(CN2CCN(c3cc(=O)c4cc(C(F)(F)F)cc([N+](=O)[O-])c4s3)CC2)CC1)c1ccccc1 (centres undefined)	56.4	68.1	< 0.016	> 64	54.2	36.2	–
O=C(OC1CCC(CN2CCN(c3cc(=O)c4cc(C(F)(F)F)cc([N+](=O)[O-])c4s3)CC2)CC1)c1ccc(C(F)(F)F)cc1 (centres undefined)	5.2	28.8	< 0.016	> 64	16.7	7	–
O=c1cc(N2CCN(CC3CCC(NS(=O)(=O)c4ccccc4)CC3)CC2)sc2c([N+](=O)[O-])cc(C(F)(F)F)cc12 (centres undefined)	90.8	95.3	0.107 (≈ 0.175 µM)	> 64	> 93.2	> 93.2	–
COc1ccc(C(=O)OC2CCC(CN3CCN(c4cc(=O)c5cc(C(F)(F)F)cc([N+](=O)[O-])c5s4)CC3)CC2)cc1 (centres undefined)	12.2	31	0.121 (≈ 0.2 µM)	> 64	17.7	9.9	–
O=C(OC1CCC(CN2CCN(c3cc(=O)c4cc(C(F)(F)F)cc([N+](=O)[O-])c4s3)CC2)CC1)C1CCCCC1 (centres undefined)	2.8	1.2	< 0.016	> 64	4.7	5.8	–
O=C(NC1CCC(CN2CCN(c3cc(=O)c4cc(C(F)(F)F)cc([N+](=O)[O-])c4s3)CC2)CC1)c1ccccc1 (centres undefined)	92.9	90.6	0.244 (≈ 0.425 µM)	44.3 (≈ 77.1 µM)	> 93.2	> 93.2	–
CC(=O)NC1CCC(CN2CCN(c3cc(=O)c4cc(C(F)(F)F)cc([N+](=O)[O-])c4s3)CC2)CC1 (centres undefined)	86.8	94.9	4.71 (≈ 9.19 µM)	> 64	> 93.2	> 93.2	–
O=C(OC1CCC(CN2CCN(c3cc(=O)c4cc(C(F)(F)F)cc([N+](=O)[O-])c4s3)CC2)CC1)c1ccncc1 (centres undefined)	1	1.4	< 0.016	> 64	4.9	4.5	–
CS(=O)(=O)OC1CCC(CN2CCN(c3cc(=O)c4cc(C(F)(F)F)cc([N+](=O)[O-])c4s3)CC2)CC1 (centres undefined)	–	–	< 0.016	> 64	–	–	–
NC1CCC(CN2CCN(c3cc(=O)c4cc(C(F)(F)F)cc([N+](=O)[O-])c4s3)CC2)CC1 (centres undefined)	83.6	107	0.49 (≈ 1.04 µM)	–	–	–	solubility at 20 min [3]: 43.9 µg/mL (≈ 93.3 µM)
Cc1cccc(C(=O)OC2CCC(CN3CCN(c4cc(=O)c5cc(C(F)(F)F)cc([N+](=O)[O-])c5s4)CC3)CC2)c1 (centres undefined)	–	–	< 0.016	> 64	–	–	–
C=CC(=O)OC1CCC(CN2CCN(c3cc(=O)c4cc(C(F)(F)F)cc([N+](=O)[O-])c4s3)CC2)CC1 (centres undefined)	–	–	0.035 (≈ 0.0666 µM)	> 64	–	–	–
CC(=O)OC1CCC(CN2CCN(c3cc(=O)c4cc(C(F)(F)F)cc([N+](=O)[O-])c4s3)CC2)CC1 (centres undefined)	0	0	< 0.016	> 64	< 9	< 9	–
O=C(OC1CCC(CN2CCN(c3cc(=O)c4cc(C(F)(F)F)cc([N+](=O)[O-])c4s3)CC2)CC1)c1cccc(F)c1 (centres undefined)	–	–	< 0.016	> 64	–	–	–
O=C(OC1CCC(CN2CCN(c3cc(=O)c4cc(C(F)(F)F)cc([N+](=O)[O-])c4s3)CC2)CC1)c1ccc2c(c1)OCC2 (centres undefined)	–	–	0.179 (≈ 0.29 µM)	> 64	–	–	–
O=c1cc(N2CCN(CC3CCC(OS(=O)(=O)c4ccccc4)CC3)CC2)sc2c([N+](=O)[O-])cc(C(F)(F)F)cc12 (centres undefined)	–	–	< 0.016	> 64	–	–	–
CCCC(=O)OC1CCC(CN2CCN(c3cc(=O)c4cc(C(F)(F)F)cc([N+](=O)[O-])c4s3)CC2)CC1 (centres undefined)	–	–	< 0.016	> 64	–	–	–
CC(C)S(=O)(=O)OC1CCC(CN2CCN(c3cc(=O)c4cc(C(F)(F)F)cc([N+](=O)[O-])c4s3)CC2)CC1 (centres undefined)	–	–	< 0.016	> 64	–	–	–
O=C(OC1CCC(CN2CCN(c3cc(=O)c4cc(C(F)(F)F)cc([N+](=O)[O-])c4s3)CC2)CC1)c1ccc2ccccc2c1 (centres undefined)	–	–	0.03 (≈ 0.0479 µM)	> 64	–	–	–
O=C(OC1CCC(CN2CCN(c3cc(=O)c4cc(C(F)(F)F)cc([N+](=O)[O-])c4s3)CC2)CC1)c1ccc(F)cc1 (centres undefined)	3	1.5	< 0.016	> 64	4.9	5.9	–

Structure (SMILES)	remaining at 0.5 h [1] [%]	remaining at 0.5 h [2] [%]	MIC [4] [µg/mL]	IC50 [5] [µg/mL]	half-life [6] [min]	half-life [7] [min]	other results
Cc1ccc(C(=O)OC2CCC(CN3CCN(c4cc(=O)c5cc(C(F)(F)F)cc([N+](=O)[O-])c5s4)CC3)CC2)cc1 (centres undefined)	9.7	18	0.031 (≈ 0.0526 µM)	> 64	12.1	8.9	–
O=c1cc(N2CCN(CC3CCC(OS(=O)(=O)c4ccc5ccccc5c4)CC3)CC2)sc2c([N+](=O)[O-])cc(C(F)(F)F)cc12 (centres undefined)	–	–	< 0.016	> 64	–	–	–
CS(=O)(=O)NC1CCC(CN2CCN(c3cc(=O)c4cc(C(F)(F)F)cc([N+](=O)[O-])c4s3)CC2)CC1 (centres undefined)	105	111	> 32	48.4 (≈ 88.3 µM)	> 93.2	> 93.2	–
COc1ccccc1C(=O)OC1CCC(CN2CCN(c3cc(=O)c4cc(C(F)(F)F)cc([N+](=O)[O-])c4s3)CC2)CC1 (centres undefined)	–	–	0.031 (≈ 0.0512 µM)	> 64	–	–	–
O=c1cc(N2CCN(CC3CCC(NP(=O)(Oc4ccccc4)Oc4ccccc4)CC3)CC2)sc2c([N+](=O)[O-])cc(C(F)(F)F)cc12 (centres undefined)	74.1	66.1	0.076 (≈ 0.108 µM)	> 64	50.2	69.2	–
CC(C)C(=O)OC1CCC(CN2CCN(c3cc(=O)c4cc(C(F)(F)F)cc([N+](=O)[O-])c4s3)CC2)CC1 (centres undefined)	–	–	< 0.016	> 64	–	–	–
Nc1cc(C(F)(F)F)cc2c(=O)cc(N3CCN(CC4CCCCC4)CC3)sc12	0.9	69.4	12.7 (≈ 29.8 µM)	–	–	–	–
O=C(OC1CCC(CN2CCN(c3cc(=O)c4cc(C(F)(F)F)cc([N+](=O)[O-])c4s3)CC2)CC1)c1cccc(C(F)(F)F)c1 (centres undefined)	–	–	< 0.016	> 64	–	–	–
O=c1cc(N2CCN(CC3CCC(OS(=O)(=O)c4cccnc4)CC3)CC2)sc2c([N+](=O)[O-])cc(C(F)(F)F)cc12 (centres undefined)	–	–	< 0.016	> 64	–	–	–
O=c1cc(N2CCN(CC3CCC(OS(=O)(=O)c4ccc5c(c4)CCO5)CC3)CC2)sc2c([N+](=O)[O-])cc(C(F)(F)F)cc12 (centres undefined)	–	–	< 0.016	> 64	–	–	–
O=C(OC1CCC(CN2CCN(c3cc(=O)c4cc(C(F)(F)F)cc([N+](=O)[O-])c4s3)CC2)CC1)c1cccs1 (centres undefined)	2.2	1.8	< 0.016	> 64	5.2	5.5	–
COc1cccc(C(=O)OC2CCC(CN3CCN(c4cc(=O)c5cc(C(F)(F)F)cc([N+](=O)[O-])c5s4)CC3)CC2)c1 (centres undefined)	–	–	< 0.016	> 64	–	–	–
Nc1cc(C(F)(F)F)cc2c(=O)cc(N3CCN(CC4CCC(O)CC4)CC3)sc12 (centres undefined)	72.9	60	> 32	–	–	–	–
O=C(OC1CCC(CN2CCN(c3cc(=O)c4cc(C(F)(F)F)cc([N+](=O)[O-])c4s3)CC2)CC1)c1ccco1 (centres undefined)	1	0.6	< 0.016	> 64	< 4.5	4.5	–
O=c1cc(N2CCN(CC3CCCCC3)CC2)sc2c(NO)cc(C(F)(F)F)cc12	19.1	47.8	0.244 (≈ 0.553 µM)	–	–	–	–
COP(=O)(NC1CCC(CN2CCN(c3cc(=O)c4cc(C(F)(F)F)cc([N+](=O)[O-])c4s3)CC2)CC1)OC (centres undefined)	–	–	3.15 (≈ 5.45 µM)	> 64	–	–	–
O=C(OC1CCC(CN2CCN(c3cc(=O)c4cc(C(F)(F)F)cc([N+](=O)[O-])c4s3)CC2)CC1)C1CCC1 (centres undefined)	–	–	0.028 (≈ 0.0506 µM)	> 64	–	–	–
O=c1cc(N2CCN(CC3CCC(O)CC3)CC2)sc2c([N+](=O)[O-])cc(C(F)(F)F)cc12 (centres undefined)	72.7	51.2	0.069 (≈ 0.146 µM)	–	–	–	Activity [8]: 24.75 g; solubility at 20 min [3]: 8.3 µg/mL (≈ 17.6 µM); Activity [9]: 4.06 log10CFU
NNC(=O)c1ccncc1 [ISONIAZID]	–	–	0.039 (≈ 0.284 µM)	–	–	–	Activity [10]: 24.66 g; Activity [11]: 130 log10CFU
CO[C@H]1/C=C/O[C@@]2(C)Oc3c(C)c(O)c4c(O)c(c(/C=N/N5CCN(C)CC5)c(O)c4c3C2=O)NC(=O)/C(C)=C\C=C\[C@H](C)[C@H](O)[C@@H](C)[C@@H](O)[C@@H](C)[C@H](OC(C)=O)[C@@H]1C [RIFAMPIN]	–	–	0.025 (≈ 0.0304 µM)	> 64	–	–	–
